Melting point data for 77 molecules are collected here from a melting point compilation (Tetko et al.).

What is called melting point is the temperature, or range, at which the solid turns liquid. The molecule `Nc1ccccc1-c1cnco1` came in with a melting point of 54 to 56 °C.

`Cc1nc2ccc(S(=O)(=O)Cl)cc2s1` showed a melting point of 98 to 101 °C. Under `CC(=NNC(N)=O)c1ccncc1` stands 218 °C.

With `CC1(C)Nc2cccc3c(N=Nc4ccc(N=Nc5ccccc5)c5ccccc45)ccc(c23)N1`, the melting point was 120 to 124 °C.

`N#CC(C#N)=C(SCc1ccccc1)SCc1ccccc1` gave a melting point of 82 °C. Then `N#Cc1ccc(OC(F)F)cc1`, with 40 to 42 °C; and `Cc1ccc(C)c2c(=O)c(=O)c12`, with 133 °C; and `NC1(C(=O)O)CCCC1`, with 320 to 322 °C. Under `CN1CCN(C2CCNCC2)CC1` stands 54.5 °C; under `FC(F)(F)C(Cl)(Cl)C(Cl)(Cl)C(F)(F)F`, 83.5 °C; under `COC(=O)C(c1ccccc1)c1ccccc1`, 60 °C.

As for `COP(=O)(OC)OC(Br)C(Cl)(Cl)Br` (configuration not stated), the melting point was found to be 27 °C. In the case of `CCOC(=O)N1C(=O)c2ccccc2C1=O`, the melting point was determined as 91 °C. Then `Oc1ccc2c(c1)C13CCCCC1C(C2)N(CCc1ccccc1)CC3` (configuration not stated), with 244 °C. The molecule `Cc1ccc(O)c(CO)n1` came in with a melting point of 157 to 159 °C. Molecule `Cc1ccc(CS(=O)(=O)Cl)cc1` came in with a melting point of 80 to 85 °C. On to `COc1ccc2[nH]cnc2c1`, for which the melting point stood at 122 °C.

In the case of `Brc1cccc(Br)c1Br`, the melting point amounted to 87.5 °C. Under `O=C1c2ccc(C=NO)cc2C(=O)c2c(Cl)c(Cl)c(Cl)c(Cl)c21` stands 234 to 235 °C; under `Cc1c(O)cccc1[N+](=O)[O-]`, 150 °C; under `Cc1ccc(COc2ccc(CC#N)cc2)cc1`, 121 to 123 °C. As for `Cc1ccccc1NC(=O)c1cnc(C(C)(C)C)cn1`, the melting point amounted to 81 °C. Under `CCCCCC(O)CC` (racemic) stands -16 °C; under `CCOC(=O)/C(=N\Nc1ccc([N+](=O)[O-])cc1)C(=O)C(F)(F)F`, 184 °C; under `O=C(O)c1ccccc1-c1ccco1`, 87 °C. Then `C[C@H](O)c1ccccc1Br`, with 56 to 58 °C; and `O=C(O)C=Cc1cccc(C(F)(F)F)c1`, with 136 °C. Under `CCSC(SCC)C(OC(C)=O)C(OC(C)=O)C(OC(C)=O)C(COC(C)=O)OC(C)=O` (configuration not stated) stands 111 to 112 °C.

Molecule `Clc1ccccc1-c1nnc(-c2ccccc2Cl)nn1` showed a melting point of 183 °C. For `C1SCSCS1`, the melting point came to 220 °C.

Take `CCCCCCCS`: the melting point is -43 °C. Then `O=[N+]([O-])c1ccc(-c2cn3c(n2)sc2ccccc23)cc1`, with 285 to 286 °C; and `Cc1ccc(S(=O)(=O)N/N=C2\C=CC(C)(c3ccccc3)CC2)cc1` (configuration not stated), with 147 °C. Then `Oc1cncc(F)c1`, with 163 °C; and `CCOP(=O)(NC(C)C)Oc1ccc(SC)c(C)c1` (configuration not stated), with 49 °C.

`O=C(/C=C/c1ccc(-c2ccc([N+](=O)[O-])cc2)o1)c1ccco1` returned a melting point of 187 °C. Then `CC(=O)OC[C@@H](OC(C)=O)[C@H](OC(C)=O)[C@H](OC(C)=O)[C@@H](OC(C)=O)c1nnn[nH]1`, with 109 °C; and `NC(=O)c1cccc(Cl)c1Cl`, with 170 to 172 °C; and `CC(C)C(C)CCC(C)C1CCC2C3CC=C4CC(O)CCC4(C)C3CCC12C` (configuration not stated), with 158 °C. Under `CC(C)CCC[C@@H](C)[C@H]1CC[C@H]2[C@@H]3CC=C4C[C@@H](OCOc5ccc(Cl)cc5)CC[C@]4(C)[C@H]3CC[C@]12C` stands 144 to 145 °C; under `NC(C(=O)O)(c1ccccc1)c1ccccc1`, 244 to 247 °C. Under `CC(=O)CCc1oc2ccc(NC(C)=O)cc2c1-c1ccc(C)o1` stands 131 to 132 °C; under `CCOC(=O)C1=C(C)NC(=O)NC1c1cccc(OC)c1OC` (configuration not stated), 195 °C.

In turn, `CCC(C(=O)O)c1ccc(N2Cc3ccccc3C2=O)cc1` (configuration not stated) returned a melting point of 183 °C. For `FC(F)(F)c1nn(CN2CCN(Cn3nc(C(F)(F)F)n(N=Cc4cccs4)c3=S)CC2)c(=S)n1N=Cc1cccs1`, the melting point worked out at 187 °C. Under `Cc1nc(Cl)c2c3c(sc2n1)CCCC3` stands 94 to 95 °C. Under `Sc1nnc(-c2ccco2)n1-c1ccc2c(c1)OCCO2` stands 237 to 240 °C; under `CC(C)(C)OC(=O)NC(Cc1cccs1)C(=O)O` (configuration not stated), 71 to 76 °C; under `CCC(=O)OC1(C(=O)CCl)C(C)CC2C3CCC4=CC(=O)C=CC4(C)C3(F)C(O)CC21C` (configuration not stated), 196 °C. Molecule `CCN(Cc1ccccc1)c1ccccc1` registered a melting point of 35 °C. Regarding `Cc1cc(O)nc(O)c1`, the melting point is 197 °C. Under `N#CCc1ccccc1CC#N` stands 59 °C; under `Cc1ccc(N(CCO)CCO)cc1N=Nc1ccc([N+](=O)[O-])cc1`, 160 °C. Then `Cc1ccccc1C=C1C(=O)OC(C)(C)OC1=O`, with 142 °C. In the case of `C=C1CCC(=O)O1`, the melting point is 18 °C.

Take `CCC(C)C(N)P(=O)(O)O` (configuration not stated): the melting point stood at 274 °C.

The molecule `Cc1onc(-c2ccccc2)c1N=C=O` registered a melting point of 39 to 40 °C.

Regarding `O=C(O)CSC(=S)SCC(=O)O`, the melting point is 170 to 175 °C. `C=C/C=C(C)/C=N/Nc1ccc([N+](=O)[O-])cc1[N+](=O)[O-]` came in with a melting point of 171 °C. Under `O=C(O)c1ccc(O)c(O)c1O` stands 221 °C; under `S=C=NC(c1ccccc1)(c1ccccc1)c1ccccc1`, 138 to 140 °C. Under `CCn1c(=O)n(CC)c(=O)n(CC)c1=O` stands 96.8 °C; under `N#Cc1ccc(-c2ccc(C(F)(F)F)cn2)cc1`, 123 to 124 °C; under `CNC(C)Cc1ccc(O)cc1` (configuration not stated), 161 °C. As for `c1ccc(-c2cnco2)cc1`, the melting point was in the range of 37 to 39 °C. Under `COC1=C(OC)/C(=C/C=O)OC1=O` stands 60 to 62 °C; under `N#CCc1ccccc1OCc1ccccc1`, 77 °C. Then `NNC(=O)c1ccccc1-c1ccccc1`, with 140 to 143 °C; and `CCCCCC(=O)Cc1cc(O)cc2c1C(=O)Oc1cc(O)c(C(=O)O)c(CCCCC)c1O2`, with 205 °C. Take `O=c1oc2ccccc2c(O)c1C1CCCc2ccccc21` (configuration not stated): the melting point came out at 174 °C.

As for `ClCc1cc(Br)cc2c1OCOC2`, the melting point stood at 103 °C. For the molecule `COC(=O)C1C(=O)C(C(=O)OC)C2c3ccccc3C1C(C(=O)OC)C(O)C2C(=O)OC` (configuration not stated), the melting point stood at 92.2 °C.

`CCC(=O)c1ccc(OCc2ccccc2)cc1` had a melting point of 100 °C. Then `COc1ccc(C=CC#N)c(Cl)c1OC`, with 107 to 110 °C. Regarding `Cc1onc(-c2c(Cl)cccc2Cl)c1CCl`, the melting point is 61 to 63 °C. In turn, `O=Cc1scc2c1OCCO2` displayed a melting point of 138 to 140 °C.

`Nc1cc2ccccc2cn1` yielded a melting point of 154 to 156 °C.
